Experimental data taken from ChEMBL document CHEMBL1156093, “Synthesis and biological activity of dialkylphosphocholines” (Bioorg Med Chem Lett, 2009).
Values after ≈ are worked out from the molar mass of the structure shown.

Columns and labels:
Acanthamoeba lugdunensis = assay: Antiprotozoal activity against Acanthamoeba lugdunensis; format: functional
Candida albicans = assay: Antifungal activity against Candida albicans; format: functional
HFL1 = assay: Cytotoxicity against human HFL1 cells; format: cell-based
HeLa = assay: Cytotoxicity against human HeLa cells; format: functional, cell-based

Molecule `CCCCCCCCCCCCCC[N+](C)(C)CCOP(=O)([O-])OCCCCCCCC` has an MTC (Acanthamoeba lugdunensis) greater than 400 µM and an MFC (Candida albicans) of 9.7 µM (≈ 4.63 µg/mL).

Work on `CCCCCCCCCCCC[N+](C)(C)CCCCCCCCCCOP(=O)([O-])OCCCCCCCCCC` yielded an MTC (Acanthamoeba lugdunensis) greater than 400 µM and an MFC (Candida albicans) of 8100 µM (≈ 4780 µg/mL).

Molecule `CCCCCCCCCCCC[N+](C)(C)CCOP(=O)([O-])OCCCCCCCCCC` has an MTC (Acanthamoeba lugdunensis) greater than 400 µM, an MFC (Candida albicans) of 19.3 µM (≈ 9.22 µg/mL) and an IC50 (HFL1) of 43.8 µM. For the same molecule, the IC50 (HeLa) was 118 µM.

Work on `CCCCCCCCCCOP(=O)([O-])OCC[N+](C)(C)CCCCCCCCCC` yielded an MTC (Acanthamoeba lugdunensis) of 25 µM and an MFC (Candida albicans) of 20.5 µM (≈ 9.22 µg/mL).

With `CCCCCCCCCCCC[N+](C)(C)CCCCOP(=O)([O-])OCCCCCCCCCC` the MTC (Acanthamoeba lugdunensis) was 200 µM, the MFC (Candida albicans) was 18.6 µM (≈ 9.41 µg/mL) and the IC50 (HFL1) was 94.6 µM. The IC50 (HeLa) was 148 µM.

In the case of `CCCCCCCCCCCCCCCCCCOP(=O)([O-])OCC[N+](C)(C)CCCC`, the MTC (Acanthamoeba lugdunensis) is reported as greater than 400 µM, the MFC (Candida albicans) is reported as 19.3 µM (≈ 9.22 µg/mL) and the IC50 (HFL1) is reported as 113 µM. For the same molecule, the IC50 (HeLa) was 161 µM.

Molecule `CCCCCCCCCCCCCCOP(=O)([O-])OCC[N+](C)(C)CCCCCCCC` has an MTC (Acanthamoeba lugdunensis) greater than 400 µM and an MFC (Candida albicans) of 19.3 µM (≈ 9.22 µg/mL).

In the case of `CCCCCCCCCCCCCCCCCCCC[N+](C)(C)CCOP(=O)([O-])OCC`, the MTC (Acanthamoeba lugdunensis) is reported as greater than 400 µM and the MFC (Candida albicans) is reported as 1240 µM (≈ 592 µg/mL).

Work on `CCCCCCCCCCCCCCCCCC[N+](C)(C)CCOP(=O)([O-])OCCCC` yielded an MTC (Acanthamoeba lugdunensis) greater than 400 µM and an MFC (Candida albicans) of 9.7 µM (≈ 4.63 µg/mL).

Molecule `CCCCCCCCCCCC[N+](C)(C)CCCCCCOP(=O)([O-])OCCCCCCCCCC` has an MTC (Acanthamoeba lugdunensis) greater than 400 µM and an MFC (Candida albicans) of 34.8 µM (≈ 18.6 µg/mL).

In the case of `CCCCCCCCCCCCCCCC[N+](C)(C)CCOP(=O)([O-])OCCCCCC`, the MTC (Acanthamoeba lugdunensis) is reported as greater than 400 µM, the MFC (Candida albicans) is reported as 19.3 µM (≈ 9.22 µg/mL) and the IC50 (HFL1) is reported as 110 µM. The IC50 (HeLa) was 170 µM.

With `CCCCCCCCCC[N+](C)(C)CC[N+](C)(C)CCCCCCCCCC.[Br-].[Br-]` the MTC (Acanthamoeba lugdunensis) was 200 µM and the MFC (Candida albicans) was 17.5 µM.

`CCCCCCCCCCCCCCCCOP(=O)([O-])OCC[N+](C)(C)C` [MILTEFOSINE] showed an MTC (Acanthamoeba lugdunensis) of 400 µM, an MFC (Candida albicans) of 4 µM (≈ 1.63 µg/mL) and an IC50 (HFL1) of 203 µM. For the same molecule, the IC50 (HeLa) was 129 µM.

`CCCCCCCCCCCCOP(=O)([O-])OCC[N+](C)(C)CCCCCCCCCC` showed an MTC (Acanthamoeba lugdunensis) greater than 400 µM, an MFC (Candida albicans) of 9.7 µM (≈ 4.63 µg/mL) and an IC50 (HFL1) of 58.8 µM. For the same molecule, the IC50 (HeLa) was 131 µM.

`CCCCCCCCCCCCCCCCCCCCOP(=O)([O-])OCC[N+](C)(C)CC` was tested, and the MTC (Acanthamoeba lugdunensis) was greater than 400 µM, the MFC (Candida albicans) was 619 µM (≈ 296 µg/mL) and the IC50 (HFL1) was 27.2 µM. For the same molecule, the IC50 (HeLa) was 20.3 µM.

Molecule `CCCCCCCCCCCC[N+](C)(C)CCCOP(=O)([O-])OCCCCCCCCCC` has an MTC (Acanthamoeba lugdunensis) of 100 µM, an MFC (Candida albicans) of 9.4 µM (≈ 4.62 µg/mL) and an IC50 (HFL1) of 57.7 µM. The IC50 (HeLa) was 112 µM.

`CCCCCCCCCCCCCCCCOP(=O)([O-])OCC[N+](C)(C)CCCCCC` was tested, and the MTC (Acanthamoeba lugdunensis) was greater than 400 µM and the MFC (Candida albicans) was 77.4 µM (≈ 37 µg/mL).
